From patent US20090209606A1 (priority 2004, published 2009)
Read-outs that look alike come from different tables or passages of the source. Residues, ends and D or L forms follow the SMILES beside them. *: point of attachment. Cbz = O=C(OCc1ccccc1)*; CH2F = FC*

How the values were obtained:
SU-DHL-1 cells [1] = assay: cells; format: cell-based; settings: Homo sapiens
SU-DHL-1 cells [2] = format: cell-based
SU-DHL-1 cells [3] = format: cell-based; remark: listed apart in the source
SU-DHL-1 cells [4] = format: cell-based; remark: listed apart in the source
PARP in SU-DHL-1 cells = format: cell-based
SU-DHL-1 cells [5] = assay: Cell cycle analysis (propidium iodide, FACS); settings: SU-DHL-1, eight hours, equitoxic concentrations (bendamustine 50 μM)
[6] = system: MCF-7/ADR cells and p53 deficient RK0-E6 colon adenocarcinoma cells; format: cell-based
[7] = system: alkylguanyl transferase (AGT) in SU-DHL-1 cells
[8] = system: Ape-1 base excision repair enzyme; format: cell-based
[9] = system: relapsed indolent or transformed rituximab-refractory B-cell NHL; assay: Phase II multicenter trial; format: in vivo, human
Excerpt: This study evaluated the efficacy and toxicity of bendamustine in patients with NHL who have relapsed or are refractory to previous chemotherapy regimens. Patients refractory to rituximab had disease progression within 6 months of treatment.
Methods: This Phase II multicenter trial enrolled patients with relapsed indolent or transformed rituximab-refractory B-cell NHL from 17 sites in the US and Canada. […] Median age of patients was 63 years (range: 38-84) and 88% had Stage III/IV disease. Patients received bendamustine 120 mg/m^2 IV over 30-60 minutes, days 1 and 2, every 21 days for up to 6 cycles. Response was measured using the International Working Group criteria.

gamma-H2AX histone = assay: H2AX foci formation (immunofluorescence); settings: 50 μM
Experimental: Cell were grown on Lab-Tek chamber slides (Nalge Nunc Intl., Naperville, Ill.) in RPMI 1640 media supplemented with 10% FBS. […] The cells were incubated for 30 minutes at 37° C. and then washed two times with PBS. They were incubated for an additional 4 hours at 37° C. The cells were then washed twice with 1×PBS and incubated 10 minutes in −20° C. 100% methanol to fix the cells. They were then washed three times for five minutes each with 1×PBS. They were incubated at room temperature for 1 hour in blocking buffer (10% FBS in 1×PBS, 1% BSA). The slides were incubated at 4° C. with rocking overnight with the primary polyclonal anti-H2AX antibody (R & D Systems, Minneapolis, Minn.). The antibody was diluted in blocking buffer at a ratio of 1:10,000. Slides were washed three times with 1×PBS and incubated with Alexa Flour 488 goat anti-rabbit secondary antibody (1:4000) (Molecular Probes, Eugene, Oreg.) for 45 minutes at room temperature with gentle shaking. Slides were washed three times with 1×PBS and then the chambers removed and SlowFade Light Antifade with DAPI (Molecular Probes) was added to the cells and coverslips sealed on the slides. Analysis was performed using a motorized Zeiss AxioPlan 2e imaging microscope with DIC optics and fluorescence, a Zeiss AxioCam HRm camera and Zeiss Axiovision software Version 4.2.

[10] = system: 60 human tumor cell lines
[11] = SU-DHL-1, 72 h, read-out: Ave IC50
[12] = SU-DHL-1, 72 h, read-out: Ave IC90

O=C(O)CCCc1ccc(N(CCCl)CCCl)cc1 [Chlorambucil, chlorambucil]
IC50 (SU-DHL-1 cells [1]; [11]): 3.4 µM | IC90 (SU-DHL-1 cells [1]; [12]): 6.2 µM | IC90 (SU-DHL-1 cells [1]; SU-DHL-1, read-out: IC90 concentration): 5 µM | IC50 (SU-DHL-1 cells [1]; SU-DHL-1, read-out: equitoxic (IC50) concentrations): 4 µM | PLK-1 and Aurora A kinase (AurkA) expression (SU-DHL-1 cells [2]): No changes | down-regulation of mRNA expression of PLK-1, Aurora Kinases A and B, cyclin B1 (SU-DHL-1 cells [2]): minor effect | induction of p21 and NOXA mRNA (SU-DHL-1 cells [2]): much lower extent | up-regulation of Exo1 expression (SU-DHL-1 cells [2]): 1.8 fold | PARP protein expression (SU-DHL-1 cells [3]): no changes | expression of total p53 (SU-DHL-1 cells [3]): small increase | up-regulation of Ser-15-phosphorylated p53 (SU-DHL-1 cells [3]): no changes | loss of viability after brief exposure and wash-out (SU-DHL-1 cells [4]): minimal loss of viability | PARP cleavage (PARP in SU-DHL-1 cells): No PARP cleavage | S-phase distribution increase (SU-DHL-1 cells [5]): approximately 20%

COC(=O)C[C@H](NC(=O)[C@H](C)NC(=O)[C@@H](NC(=O)OCc1ccccc1)C(C)C)C(=O)CF [zVAD-fmk] (Cbz-Val-Ala-Asp(OMe)-CH2F)
bendamustine-induced increases in Annexin-V-positive cells [6]: able to inhibit

O=NN(CCCl)C(=O)NCCCl [carmustine]
effect of O6-benzylguanine on cytotoxic potency [7]: significantly sensitizes

Cl.Cn1c(CCCC(=O)O)nc2cc(N(CCCl)CCCl)ccc21 [Bendamustine, 4-{5-[bis(2-chloroethyl)amino]-1-methyl-2-benzimidazolyl} butyric acid hydrochloride]
IC50 (SU-DHL-1 cells [1]; [11]): 33.2 µM | IC90 (SU-DHL-1 cells [1]; [12]): 56.3 µM | IC50 (SU-DHL-1 cells [1]; SU-DHL-1, read-out: IC50 concentration): 25 µM | Fen1 mRNA regulation (SU-DHL-1 cells [2]): upregulated | PLK-1 and Aurora A kinase (AurkA) expression (SU-DHL-1 cells [2]): down-regulated | down-regulation of mRNA expression of PLK-1, Aurora Kinases A and B, cyclin B1 (SU-DHL-1 cells [2]): 60 to 80% | induction of p21 and NOXA mRNA (SU-DHL-1 cells [2]): induced | up-regulation of Exo1 expression (SU-DHL-1 cells [2]): 2.5 fold | PARP protein expression (SU-DHL-1 cells [3]): dramatic reduction | expression of total p53 (SU-DHL-1 cells [3]): strong increase | protein expression of Bax (SU-DHL-1 cells [3]): increase | up-regulation of Ser-15-phosphorylated p53 (SU-DHL-1 cells [3]): 8 fold | change of IC50 with methoxyamine addition [8]: reduced approximately four-fold | micronucleation (nuclear morphology, DAPI) ([6]; 50 μM, alone or with 20 μM zVAD-fmk, two or three days): increased incidence of micronucleation | loss of viability after brief exposure and wash-out (SU-DHL-1 cells [4]): extensive loss of viability | PARP cleavage (PARP in SU-DHL-1 cells): Maximal PARP cleavage | objective response ([9]; 15 patients refractory to prior alkylator treatment): 67% | complete response ([9]; ITT population): 25% | disease progression ([9]; ITT population): 14% | partial response ([9]; ITT population): 49% | stable disease ([9]; ITT population): 12% | overall objective response rate (ORR) ([9]; ITT population, 120 mg/m^2 IV days 1 and 2 every 21 days): 74% | median duration of response ([9]; all patients): 6.6 months | median duration of response ([9]; indolent patients): 9.3 months | toxicity ([9]; single agent, heavily pretreated patients): acceptable toxicity | median duration of response ([9]; transformed patients): 2.4 months | effect of O6-benzylguanine on cytotoxic potency [7]: not enhanced | time to detectable intranuclear H2AX foci (gamma-H2AX histone): ≤ 30 min | S-phase distribution increase (SU-DHL-1 cells [5]): over 40%

N[C@@H](Cc1ccc(N(CCCl)CCCl)cc1)C(=O)O [melphalan]
loss of viability after brief exposure and wash-out (SU-DHL-1 cells [4]): minimal loss of viability | PARP cleavage (PARP in SU-DHL-1 cells): No PARP cleavage

CN(C)/N=N/c1[nH]cnc1C(N)=O [DTIC, Dacarbazine, Dacarbazine]
Correlation (PCC) with bendamustine, LC50 [10]: 0.792 (LC50)

O=P1(N(CCCl)CCCl)NCCCO1 (centres unmarked) [cyclophosphamide]
effect of O6-benzylguanine on cytotoxic potency [7]: Opposite results | S-phase distribution increase (SU-DHL-1 cells [5]): ~15%
